The record followed here is patent US20250041282A1, “METHOD FOR TREATING INFLAMMATORY PULMONARY DISEASE” (FU JEN CATHOLIC UNIVERSITY, priority 2021, published 2025).

Experiment [1] deals with RAW264.7 macrophages. The experiment is described as follows: ELISA of cytokines in cell culture media. Format: cell-based, mouse. To be noted: pretreated 30 min, 100 ng/ml LPS 24 h; FIG. 5A/5B. On the procedure: RANTES (RayBiotech), IL-1β and IL-6 (eBioscience, San Diego, CA, USA) concentrations in cell culture media and mouse serum were measured using ELISA kits according to the manufacturer's instructions. The plates were measured at […] using an Epoch microplate spectrophotometer (BioTek Instruments, Winooski, VT, USA). The concentrations of RANTES, IL-1β and IL-6 in the samples were determined by standard curves.
For identifying the potential signaling pathways which regulate the secretion of IL-6 and RANTES induced by LPS stimulation, RAW264.7 macrophages were pretreated with various kinase inhibitors for 30 min and then stimulated with/without 100 ng/ml LPS for 24 h; the cell culture media was harvested for ELISA assay. […] (FIG. 6A). To investigate whether FJU-C28 could mediate the transcriptional activity of NF-κB (p65), the translocation of NF-κB p65 was examined in LPS-stimulated macrophages.

In experiment [2] the test system is RAW264.7 macrophages. Kind of experiment: Western blotting of LPS-stimulated macrophage lysates. Type of experiment: cell-based, mouse. The following applies: LPS-induced RAW264.7; FIG. 6D. The source says: In brief, cell lysate was separated by 10% SDS-PAGE and transferred to a PVDF membrane (Hybond™-P, Amersham, Piscataway, NJ, USA). The blots were probed with anti-p38 (Catalogue Number: 8690P), anti-p-p38 (Thr180/Tyr182; Catalogue Number: 4511P), anti-ERK44/42 (Catalogue Number: 4695P), anti-p-ERK44/42 (Thr202/Tyr204; Catalogue Number: 4370P), anti-JNK (Catalogue Number: 9258P), anti-p-JNK (Thr183/Tyr185; Catalogue Number: 4668P), anti-p65 (Catalogue Number: 8242S), anti-STAT3 (Catalogue Number: 12640S), anti-p-STAT3 (Tyr705; Catalogue Number: 9145S) and anti-RANTES (Catalogue Number: 2989S) antibodies were provided by Cell Signaling Technology, Inc. (Danvers, MA, USA). Anti-Lamin A/C (Catalogue Number: 101127) antibodies were obtained from GeneTex, Inc. (San Antonio, TX, USA). Anti-β-Actin (Catalogue Number: SC-47778) and anti-COX2 (Catalogue Number: SC-1746) antibody was obtained from Santa Cruz Biotechnology, Inc. (Dallas, Texas, USA). The anti-iNOS (Catalog Number: 610329) antibody was obtained from BD transduction Lab. (San Jose, CA, USA). Bound antibodies were visualized by […] staining (Western Lighting Plus ECL; PerkinElmer, Wellesley, MA, USA) with autoradiography using FUJI Medical X-ray film (Fuji Corporation, Kofu, Yamanashi, Japan) or a MultiGel-21 multifunctional imaging system (TOPBIO, New Taipei, Taiwan). The intensity of the western blot bands was quantified by ImageJ software. The quantitative immunoblot data were normalized to the internal control protein and are expressed as the relative ratio of the treatment group to the control. The data represent the mean±S.D. of at least three independent experiments.

In the case of `Cc1ccc(S(=O)(=O)/C=C/C#N)cc1` [BAY11-7082], in the experiment with RAW264.7 macrophages [1], the “LPS-induced expression of IL-6 (ELISA), kinase inhibitors” value is listed as “suppressed” and the “LPS-induced expression of RANTES (ELISA), kinase inhibitors” value is on record as “suppressed”.

For the compound `CCOC(=O)C1=CCCC[C@H]1S(=O)(=O)Nc1ccc(F)cc1Cl` [CLI-095], in the experiment with RAW264.7 macrophages [1], the “LPS-induced expression of IL-6 (ELISA), kinase inhibitors” value is “suppressed” and the “LPS-induced expression of RANTES (ELISA), kinase inhibitors” value was “suppressed”.

Regarding `COc1cccc(-c2cc(=O)c3ccccc3o2)c1N` [PD98059], in the experiment with RAW264.7 macrophages [2], the “LPS-induced phosphorylation of STAT3” value is listed as “slightly suppressed”. Further, the “LPS-induced expression of IL-6 (ELISA), kinase inhibitors” value in the experiment on RAW264.7 macrophages [1] is “not”.

`C[S+]([O-])c1ccc(-c2nc(-c3ccncc3)c(-c3ccc(F)cc3)[nH]2)cc1` (stereo not drawn) [SB203580]: in the experiment on RAW264.7 macrophages [2], the “LPS-induced phosphorylation of STAT3” value is reported as “inhibited”. Moreover, in the experiment on RAW264.7 macrophages [1], the “LPS-induced expression of IL-6 (ELISA), kinase inhibitors” value is “suppressed” and the “LPS-induced expression of RANTES (ELISA), kinase inhibitors” value is on record as “suppressed”.
